Where two headings read alike, the source gives them in different places.
Experiments:
Type in all cases: biochemical
PIM-1 kinase = PIM-1 kinase (Homo sapiens, UniProt P11309); test: HTRF KinEASE kinase assay, PIM-1 inhibitory activity
Excerpt: Inhibitory activities against PIM-1, TRKA, TRKB, FLT3, PKCδ, PKCε, PKCη, PAK4, PLK1, ROCK2, and IKKβ kinases were all determined using an HTRF®KinEASE™ kinase assay kit based on a time-resolved fluorescence technology. 7-carbonylstaurosporine (7OSTA) and TP-3654 were used as positive controls, and 3 duplicate wells were set in parallel. Specific operation steps are as follows. • (1) A kinase buffer was formulated and then used to formulate compounds to be tested, a positive drug, a substrate, kinases, and adenosine triphosphate (ATP). • (2) 2 μL of the substrate, 2 μL of the kinases (the kinases were not added in a negative control group), 4 μL of the compounds to be tested or the positive drug (4 μL of a buffer was added in a positive control group, and 6 μL of a buffer was added in the negative control group), and 2 μL of the ATP were sequentially added into each well of a 384-well microplate, and the microplate was sealed with a membrane and then centrifuged for uniform mixing. • (3) According to different types of the kinases, incubation was performed in an incubator at 37° C. for a specific time. • (4) A detection solution was formulated using XL-665, an antibody, and a detection buffer, 10 µL of the detection solution was added into each well, the microplate was sealed with a membrane and then centrifuged for uniform mixing, and standing was performed at room temperature for 1 hour. • (5) Fluorescence value intensities F1 and F2 at wavelengths of 620 nm and 665 nm were measured using a multifunctional microplate tester, respectively. A signal ratio was calculated as F2/F1×10000, and then an IC50 value was calculated using Graphpad Prism 8 software.

ROCK2 = ROCK2 (Homo sapiens, UniProt O75116); test: HTRF KinEASE kinase assay, ROCK2 (kinase selectivity)
Protocol: (§1) Inhibitory activities against PIM-1, TRKA, TRKB, FLT3, PKCδ, PKCε, PKCη, PAK4, PLK1, ROCK2, and IKKβ kinases were all determined using an HTRF®KinEASE™ kinase assay kit based on a time-resolved fluorescence technology. 7-carbonylstaurosporine (7OSTA) and TP-3654 were used as positive controls, and 3 duplicate wells were set in parallel. […] A signal ratio was calculated as F2/F1×10000, and then an IC50 value was calculated using Graphpad Prism 8 software.

TRKB = TRKB (Homo sapiens, UniProt Q16620); test: HTRF KinEASE kinase assay, TRKB (kinase selectivity)
Protocol: as §1

IKKβ = biological target: T1, IKKβ (Homo sapiens, UniProt O14920); test: HTRF KinEASE kinase assay, IKKβ (kinase selectivity)
T1 sequence (O14920 1-756): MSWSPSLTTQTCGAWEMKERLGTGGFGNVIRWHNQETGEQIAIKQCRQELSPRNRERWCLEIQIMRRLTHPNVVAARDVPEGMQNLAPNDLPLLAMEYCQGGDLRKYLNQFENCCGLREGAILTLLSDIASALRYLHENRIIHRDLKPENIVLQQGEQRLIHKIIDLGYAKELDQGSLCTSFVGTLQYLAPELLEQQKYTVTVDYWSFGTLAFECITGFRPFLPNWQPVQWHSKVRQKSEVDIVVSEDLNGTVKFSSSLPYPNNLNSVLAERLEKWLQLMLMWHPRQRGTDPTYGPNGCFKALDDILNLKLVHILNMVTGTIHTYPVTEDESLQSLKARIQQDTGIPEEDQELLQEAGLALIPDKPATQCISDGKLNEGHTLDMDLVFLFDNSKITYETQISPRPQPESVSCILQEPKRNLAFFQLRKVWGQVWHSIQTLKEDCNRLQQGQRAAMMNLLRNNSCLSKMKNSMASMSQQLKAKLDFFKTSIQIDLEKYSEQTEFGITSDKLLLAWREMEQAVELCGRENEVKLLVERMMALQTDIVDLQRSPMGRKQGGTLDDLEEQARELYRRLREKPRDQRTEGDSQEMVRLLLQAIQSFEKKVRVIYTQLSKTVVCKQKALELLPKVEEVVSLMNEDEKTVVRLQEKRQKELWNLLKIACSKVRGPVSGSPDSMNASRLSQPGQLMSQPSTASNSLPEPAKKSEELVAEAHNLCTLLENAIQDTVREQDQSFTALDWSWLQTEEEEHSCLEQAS
Protocol: as §1

PAK4 = PAK4 (Homo sapiens, UniProt O96013); test: HTRF KinEASE kinase assay, PAK4 (kinase selectivity)
Protocol: as §1

PKCε = biological target: T2, PKCε (Homo sapiens, UniProt Q02156); test: HTRF KinEASE kinase assay, PKCε (kinase selectivity)
T2 sequence (Q02156 1-737): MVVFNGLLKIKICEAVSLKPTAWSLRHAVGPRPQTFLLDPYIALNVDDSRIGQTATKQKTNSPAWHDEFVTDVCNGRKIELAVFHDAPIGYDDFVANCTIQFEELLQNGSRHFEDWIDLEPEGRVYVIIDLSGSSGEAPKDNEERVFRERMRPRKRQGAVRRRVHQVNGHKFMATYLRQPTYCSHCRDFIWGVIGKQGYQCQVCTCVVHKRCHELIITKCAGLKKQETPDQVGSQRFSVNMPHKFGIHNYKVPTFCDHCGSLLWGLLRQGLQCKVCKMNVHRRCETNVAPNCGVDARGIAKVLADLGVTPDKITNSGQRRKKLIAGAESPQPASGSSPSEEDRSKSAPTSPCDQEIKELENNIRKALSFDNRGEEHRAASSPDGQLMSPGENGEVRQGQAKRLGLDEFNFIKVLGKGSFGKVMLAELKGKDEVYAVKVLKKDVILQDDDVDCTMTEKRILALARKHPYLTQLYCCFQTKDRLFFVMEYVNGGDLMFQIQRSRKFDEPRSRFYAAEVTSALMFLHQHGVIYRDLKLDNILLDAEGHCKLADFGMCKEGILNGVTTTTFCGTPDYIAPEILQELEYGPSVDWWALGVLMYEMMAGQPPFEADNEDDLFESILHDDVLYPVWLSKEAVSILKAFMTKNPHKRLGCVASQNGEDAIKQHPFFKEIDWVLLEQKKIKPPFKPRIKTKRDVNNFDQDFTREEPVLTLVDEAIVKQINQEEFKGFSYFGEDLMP
Protocol: as §1

TRKA = TRKA (Homo sapiens, UniProt P04629); test: HTRF KinEASE kinase assay, TRKA (kinase selectivity)
Protocol: as §1

PKCδ = PKCδ (Homo sapiens, UniProt Q05655); test: HTRF KinEASE kinase assay, PKCδ (kinase selectivity)
Protocol: as §1

PKCη = PKCη (Homo sapiens, UniProt P24723); test: HTRF KinEASE kinase assay, PKCη (kinase selectivity)
Protocol: as §1

FLT3 = biological target: T3, FLT3 (Homo sapiens, UniProt P36888); test: HTRF KinEASE kinase assay, FLT3 (kinase selectivity)
T3 sequence (P36888 27-993): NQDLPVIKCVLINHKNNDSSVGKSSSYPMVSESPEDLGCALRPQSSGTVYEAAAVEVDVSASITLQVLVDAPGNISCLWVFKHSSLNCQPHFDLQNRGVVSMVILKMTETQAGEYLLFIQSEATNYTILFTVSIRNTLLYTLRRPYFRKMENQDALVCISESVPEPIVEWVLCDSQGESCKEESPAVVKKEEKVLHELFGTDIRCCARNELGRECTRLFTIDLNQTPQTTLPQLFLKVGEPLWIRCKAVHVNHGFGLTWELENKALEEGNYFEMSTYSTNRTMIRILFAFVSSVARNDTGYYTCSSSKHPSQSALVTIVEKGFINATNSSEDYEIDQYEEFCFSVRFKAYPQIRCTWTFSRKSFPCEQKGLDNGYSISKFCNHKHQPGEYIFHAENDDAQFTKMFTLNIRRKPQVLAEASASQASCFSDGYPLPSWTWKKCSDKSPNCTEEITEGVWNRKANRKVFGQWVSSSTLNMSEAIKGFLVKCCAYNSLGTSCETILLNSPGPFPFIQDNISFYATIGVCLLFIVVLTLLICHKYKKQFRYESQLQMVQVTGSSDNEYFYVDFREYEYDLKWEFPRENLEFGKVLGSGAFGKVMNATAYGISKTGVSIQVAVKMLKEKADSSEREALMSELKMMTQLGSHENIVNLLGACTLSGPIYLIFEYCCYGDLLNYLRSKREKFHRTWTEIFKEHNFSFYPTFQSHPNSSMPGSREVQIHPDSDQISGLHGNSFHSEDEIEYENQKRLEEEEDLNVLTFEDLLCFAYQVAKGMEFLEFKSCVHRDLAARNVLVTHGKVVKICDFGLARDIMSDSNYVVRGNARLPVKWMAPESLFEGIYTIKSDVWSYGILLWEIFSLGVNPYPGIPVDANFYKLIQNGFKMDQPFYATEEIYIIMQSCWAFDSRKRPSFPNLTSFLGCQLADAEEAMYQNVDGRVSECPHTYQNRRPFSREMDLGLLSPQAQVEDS
Protocol: as §1

PLK1 = PLK1 (Homo sapiens, UniProt P53350); test: HTRF KinEASE kinase assay, PLK1 (kinase selectivity)
Protocol: as §1

[1] = HTRF KinEASE kit, 3 duplicate wells, read-out: PIM-1 kinase inhibitory activity (IC50)

Sequence of PIM-1 kinase (P11309 whole entry): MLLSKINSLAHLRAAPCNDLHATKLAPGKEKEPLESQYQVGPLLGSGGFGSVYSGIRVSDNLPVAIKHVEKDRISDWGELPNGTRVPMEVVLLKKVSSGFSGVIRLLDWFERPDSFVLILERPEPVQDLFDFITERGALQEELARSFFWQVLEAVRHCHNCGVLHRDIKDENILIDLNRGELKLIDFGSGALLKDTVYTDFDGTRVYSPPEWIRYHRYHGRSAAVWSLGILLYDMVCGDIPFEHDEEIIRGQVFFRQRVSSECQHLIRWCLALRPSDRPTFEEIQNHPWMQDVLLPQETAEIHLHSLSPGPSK
Sequence of TRKB (Q16620 32-822, species assumed): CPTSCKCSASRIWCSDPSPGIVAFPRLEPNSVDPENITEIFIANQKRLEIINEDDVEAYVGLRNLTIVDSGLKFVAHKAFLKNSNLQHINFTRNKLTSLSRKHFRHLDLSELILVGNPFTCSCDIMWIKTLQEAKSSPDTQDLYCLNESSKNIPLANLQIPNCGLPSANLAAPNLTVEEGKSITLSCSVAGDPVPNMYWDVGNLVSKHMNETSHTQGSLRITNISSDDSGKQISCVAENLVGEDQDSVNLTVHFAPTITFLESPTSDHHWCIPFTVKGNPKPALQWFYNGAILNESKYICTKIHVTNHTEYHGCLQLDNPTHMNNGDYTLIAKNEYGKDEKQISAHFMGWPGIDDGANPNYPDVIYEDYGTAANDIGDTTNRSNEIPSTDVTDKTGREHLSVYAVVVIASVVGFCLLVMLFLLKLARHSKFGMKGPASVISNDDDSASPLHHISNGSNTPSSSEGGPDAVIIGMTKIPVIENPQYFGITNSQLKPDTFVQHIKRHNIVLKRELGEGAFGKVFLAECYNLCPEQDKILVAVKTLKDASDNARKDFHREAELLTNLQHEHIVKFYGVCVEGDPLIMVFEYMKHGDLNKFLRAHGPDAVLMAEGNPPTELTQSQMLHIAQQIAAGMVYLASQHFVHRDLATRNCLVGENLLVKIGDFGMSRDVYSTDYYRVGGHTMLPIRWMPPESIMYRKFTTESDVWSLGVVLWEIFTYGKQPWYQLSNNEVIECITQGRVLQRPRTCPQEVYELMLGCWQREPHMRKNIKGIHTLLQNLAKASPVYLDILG
Sequence of TRKA (P04629 33-796, species assumed): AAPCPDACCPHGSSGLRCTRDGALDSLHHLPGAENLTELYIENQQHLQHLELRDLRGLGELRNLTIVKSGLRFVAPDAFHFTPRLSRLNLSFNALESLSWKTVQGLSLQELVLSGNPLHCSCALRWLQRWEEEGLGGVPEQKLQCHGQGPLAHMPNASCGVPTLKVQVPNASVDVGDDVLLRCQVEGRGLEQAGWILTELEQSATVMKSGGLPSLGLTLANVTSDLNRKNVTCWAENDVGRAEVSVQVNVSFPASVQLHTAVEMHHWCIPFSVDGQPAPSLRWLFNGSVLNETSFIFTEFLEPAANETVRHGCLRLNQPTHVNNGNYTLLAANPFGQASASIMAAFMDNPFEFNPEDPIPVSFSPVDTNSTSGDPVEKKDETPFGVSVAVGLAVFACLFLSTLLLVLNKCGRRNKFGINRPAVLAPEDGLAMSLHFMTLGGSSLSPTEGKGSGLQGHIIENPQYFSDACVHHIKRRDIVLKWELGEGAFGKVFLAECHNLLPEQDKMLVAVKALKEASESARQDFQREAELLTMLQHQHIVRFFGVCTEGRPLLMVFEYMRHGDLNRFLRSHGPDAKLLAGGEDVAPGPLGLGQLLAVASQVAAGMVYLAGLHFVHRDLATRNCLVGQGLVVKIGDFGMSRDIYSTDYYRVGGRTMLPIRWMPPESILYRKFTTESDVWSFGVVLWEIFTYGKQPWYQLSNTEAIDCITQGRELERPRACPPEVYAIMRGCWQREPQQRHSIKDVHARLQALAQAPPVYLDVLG
Sequence of PKCδ (Q05655 whole entry): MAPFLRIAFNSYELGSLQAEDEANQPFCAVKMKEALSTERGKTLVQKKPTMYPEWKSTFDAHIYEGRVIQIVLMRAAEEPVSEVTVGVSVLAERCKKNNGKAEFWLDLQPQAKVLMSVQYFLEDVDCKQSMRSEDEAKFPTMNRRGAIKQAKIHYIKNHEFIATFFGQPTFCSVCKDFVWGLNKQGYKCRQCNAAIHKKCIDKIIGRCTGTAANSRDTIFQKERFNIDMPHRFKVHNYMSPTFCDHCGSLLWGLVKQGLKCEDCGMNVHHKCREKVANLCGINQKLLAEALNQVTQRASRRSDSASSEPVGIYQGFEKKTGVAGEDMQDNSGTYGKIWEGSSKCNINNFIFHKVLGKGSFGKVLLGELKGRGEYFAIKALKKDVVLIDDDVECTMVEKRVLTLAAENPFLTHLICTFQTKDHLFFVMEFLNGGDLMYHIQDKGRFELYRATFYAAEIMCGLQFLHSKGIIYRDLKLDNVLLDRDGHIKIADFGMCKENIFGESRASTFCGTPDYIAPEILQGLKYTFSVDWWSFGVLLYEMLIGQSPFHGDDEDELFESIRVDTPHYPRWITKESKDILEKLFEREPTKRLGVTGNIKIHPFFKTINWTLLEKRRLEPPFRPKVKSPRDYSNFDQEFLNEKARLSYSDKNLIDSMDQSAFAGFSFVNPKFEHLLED
Sequence of PKCη (P24723 whole entry): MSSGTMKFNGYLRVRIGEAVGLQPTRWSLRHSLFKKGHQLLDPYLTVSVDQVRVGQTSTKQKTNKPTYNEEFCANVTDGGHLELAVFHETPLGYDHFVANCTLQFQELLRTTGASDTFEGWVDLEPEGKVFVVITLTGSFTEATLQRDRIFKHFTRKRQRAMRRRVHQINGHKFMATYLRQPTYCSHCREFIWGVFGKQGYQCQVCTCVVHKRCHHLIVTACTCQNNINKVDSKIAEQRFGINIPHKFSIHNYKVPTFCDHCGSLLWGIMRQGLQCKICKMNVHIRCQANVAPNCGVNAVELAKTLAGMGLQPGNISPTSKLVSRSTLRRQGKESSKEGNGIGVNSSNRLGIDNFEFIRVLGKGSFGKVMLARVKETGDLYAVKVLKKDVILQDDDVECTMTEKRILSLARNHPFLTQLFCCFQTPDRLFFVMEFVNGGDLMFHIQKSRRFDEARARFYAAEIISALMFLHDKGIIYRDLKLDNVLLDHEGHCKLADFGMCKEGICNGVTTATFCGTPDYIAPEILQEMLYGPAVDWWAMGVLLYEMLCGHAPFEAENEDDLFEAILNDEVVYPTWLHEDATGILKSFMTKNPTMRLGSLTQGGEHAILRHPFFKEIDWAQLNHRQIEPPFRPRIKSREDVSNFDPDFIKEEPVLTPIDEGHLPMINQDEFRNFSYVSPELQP
Sequence of PAK4 (O96013 whole entry, species assumed): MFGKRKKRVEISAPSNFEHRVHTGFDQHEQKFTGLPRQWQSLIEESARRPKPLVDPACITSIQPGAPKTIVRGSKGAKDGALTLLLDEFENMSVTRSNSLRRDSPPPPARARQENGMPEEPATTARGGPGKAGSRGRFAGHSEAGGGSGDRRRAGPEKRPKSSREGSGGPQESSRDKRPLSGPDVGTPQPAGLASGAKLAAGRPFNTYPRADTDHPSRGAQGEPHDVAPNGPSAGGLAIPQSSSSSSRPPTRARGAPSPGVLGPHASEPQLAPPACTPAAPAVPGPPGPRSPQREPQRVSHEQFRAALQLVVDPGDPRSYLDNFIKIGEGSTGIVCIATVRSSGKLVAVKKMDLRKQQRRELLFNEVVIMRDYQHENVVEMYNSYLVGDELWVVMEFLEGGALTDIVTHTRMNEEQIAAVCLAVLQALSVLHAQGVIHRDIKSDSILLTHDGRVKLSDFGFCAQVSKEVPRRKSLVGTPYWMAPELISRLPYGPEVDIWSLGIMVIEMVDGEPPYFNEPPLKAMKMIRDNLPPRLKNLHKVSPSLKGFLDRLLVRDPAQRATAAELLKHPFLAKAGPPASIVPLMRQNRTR
Sequence of PLK1 (P53350 whole entry, species assumed): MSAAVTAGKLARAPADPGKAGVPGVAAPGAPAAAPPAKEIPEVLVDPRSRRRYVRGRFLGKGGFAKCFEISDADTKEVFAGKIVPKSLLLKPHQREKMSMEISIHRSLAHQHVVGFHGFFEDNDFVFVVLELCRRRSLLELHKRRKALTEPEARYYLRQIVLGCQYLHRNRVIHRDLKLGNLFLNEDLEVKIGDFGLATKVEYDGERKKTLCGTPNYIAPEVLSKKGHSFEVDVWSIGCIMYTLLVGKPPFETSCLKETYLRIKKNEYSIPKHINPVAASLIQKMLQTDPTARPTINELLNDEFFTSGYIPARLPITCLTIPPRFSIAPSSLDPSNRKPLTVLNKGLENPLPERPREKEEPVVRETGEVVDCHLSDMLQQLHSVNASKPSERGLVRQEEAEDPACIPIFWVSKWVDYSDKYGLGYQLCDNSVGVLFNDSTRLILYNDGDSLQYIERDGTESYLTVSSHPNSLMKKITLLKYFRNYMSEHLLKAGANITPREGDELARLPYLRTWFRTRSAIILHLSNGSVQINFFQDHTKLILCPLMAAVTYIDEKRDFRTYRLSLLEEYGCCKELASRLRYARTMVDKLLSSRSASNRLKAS

Compound	IC50 (PIM-1 kinase; [1]) [nM]	also measured
CCC(=O)N(C)[C@@H]1C[C@H]2O[C@@](C)([C@@H]1OC)n1c3ccccc3c3c4c(c5c6ccccc6n2c5c31)C(=O)NC4=O [Compound 1]	41	–
CCCC(=O)N(C)[C@@H]1C[C@H]2O[C@@](C)([C@@H]1OC)n1c3ccccc3c3c4c(c5c6ccccc6n2c5c31)C(=O)NC4=O [Compound 2]	83	–
CCCCC(=O)N(C)[C@@H]1C[C@H]2O[C@@](C)([C@@H]1OC)n1c3ccccc3c3c4c(c5c6ccccc6n2c5c31)C(=O)NC4=O [Compound 3]	> 1000	–
CCCCCC(=O)N(C)[C@@H]1C[C@H]2O[C@@](C)([C@@H]1OC)n1c3ccccc3c3c4c(c5c6ccccc6n2c5c31)C(=O)NC4=O [Compound 4]	> 1000	–
CCCCCCC(=O)N(C)[C@@H]1C[C@H]2O[C@@](C)([C@@H]1OC)n1c3ccccc3c3c4c(c5c6ccccc6n2c5c31)C(=O)NC4=O [Compound 5]	> 1000	–
CCCCCCCC(=O)N(C)[C@@H]1C[C@H]2O[C@@](C)([C@@H]1OC)n1c3ccccc3c3c4c(c5c6ccccc6n2c5c31)C(=O)NC4=O [Compound 6]	> 1000	–
CN[C@@H]1C[C@H]2O[C@@](C)([C@@H]1OC)n1c3ccccc3c3c4c(c5c6ccccc6n2c5c31)C(=O)NC4=O [Compound 7OSTA, 7-carbonylstaurosporine]	–	IC50 (ROCK2): 35.9 nM; IC50 (TRKB): 2.4 nM; IC50 (IKKβ): > 1000 nM; IC50 (PAK4): 37 nM; IC50 (PKCε): 2.3 nM; IC50 (PIM-1 kinase): 5.4 nM; IC50 (TRKA): 0.4 nM; IC50 (PKCδ): 1.4 nM; IC50 (PKCη): 2.1 nM; IC50 (FLT3): 15.3 nM; IC50 (PLK1): 308 nM
CO[C@@H]1[C@H](N(C)C(=O)C2CC2)C[C@H]2O[C@]1(C)n1c3ccccc3c3c4c(c5c6ccccc6n2c5c31)C(=O)NC4=O [Compound 7]	445	–
CO[C@@H]1[C@H](N(C)C(=O)c2cccs2)C[C@H]2O[C@]1(C)n1c3ccccc3c3c4c(c5c6ccccc6n2c5c31)C(=O)NC4=O [Compound 8]	52.4	–
CO[C@@H]1[C@H](N(C)C(=O)c2ccc3c(c2)OCO3)C[C@H]2O[C@]1(C)n1c3ccccc3c3c4c(c5c6ccccc6n2c5c31)C(=O)NC4=O [Compound 9]	> 1000	–
CO[C@@H]1[C@H](N(C)C(=O)C=C(C)C)C[C@H]2O[C@]1(C)n1c3ccccc3c3c4c(c5c6ccccc6n2c5c31)C(=O)NC4=O [Compound 10]	81.4	–
CO[C@@H]1[C@H](N(C)C(=O)/C=C/c2ccccc2)C[C@H]2O[C@]1(C)n1c3ccccc3c3c4c(c5c6ccccc6n2c5c31)C(=O)NC4=O [Compound 11]	> 1000	–
CO[C@@H]1[C@H](N(C)C(=O)CCC(=O)O)C[C@H]2O[C@]1(C)n1c3ccccc3c3c4c(c5c6ccccc6n2c5c31)C(=O)NC4=O [Compound 12]	42.9	–
CO[C@@H]1[C@H](N(C)C(=O)CCCC(=O)O)C[C@H]2O[C@]1(C)n1c3ccccc3c3c4c(c5c6ccccc6n2c5c31)C(=O)NC4=O [Compound 13]	39.1	–
CO[C@@H]1[C@H](N(C)C(=O)CSCC(=O)O)C[C@H]2O[C@]1(C)n1c3ccccc3c3c4c(c5c6ccccc6n2c5c31)C(=O)NC4=O [Compound 14]	53.8	–
CO[C@@H]1[C@H](N(C)C(=O)CCCCC(=O)O)C[C@H]2O[C@]1(C)n1c3ccccc3c3c4c(c5c6ccccc6n2c5c31)C(=O)NC4=O [Compound 15]	61.1	–
CO[C@@H]1[C@H](N(C)C(=O)CCCCCCC(=O)O)C[C@H]2O[C@]1(C)n1c3ccccc3c3c4c(c5c6ccccc6n2c5c31)C(=O)NC4=O [Compound 16]	65.9	–
CO[C@@H]1[C@H](N(C)C(=O)CCC(=O)Nc2cc[nH]n2)C[C@H]2O[C@]1(C)n1c3ccccc3c3c4c(c5c6ccccc6n2c5c31)C(=O)NC4=O [Compound 18]	32.4	–
CC(C)(O)[C@H]1CC[C@H](Nc2ccc3ncc(-c4cccc(C(F)(F)F)c4)n3n2)CC1 [TP-3654, reference compound]	31.1	–

Source: patent US20260216207A1, “7-CARBONYLSTAUROSPORINE DERIVATIVE, PREPARATION METHOD THEREFOR, AND USE THEREOF” (HANGZHOU KEXING BIOCHEM. CO., LTD., priority 2023, published 2026)
